Assay results published in patent US8759339B2, “Pyrrolo[2,1-c][1,4]naphthodiazepine linked piperazine compounds and a process for the preparation thereof” (Council of Scientific & Industrial Research, priority 2011, dated 2014).
Where two headings read alike, the source gives them in different places.

Columns and labels:
[1] = test system: calf thymus DNA (CT-DNA); assay: Thermal denaturation studies with duplex-form calf thymus DNA; assay type: binding; settings: [PND]/[DNA] molar ratio 1:5, CT-DNA 100 μM, ligand 20 μM, aqueous sodium phosphate buffer pH 7; for ΔTm after incubation at 37° C. for 0 hr: 0 hr at 37° C.; for ΔTm after incubation at 37° C. for 18 hrs: 18 hrs at 37° C.
Method: Compounds have been subjected to thermal denaturation studies with duplex-form calf thymus DNA (CT-DNA) using an modification of a reported procedure (Newman, M. S. Carcinog-compr. Surv. 1976, 1, 203; (b) Hecht, S. S.; Loy, M.; Hoffman, Carcinog-compr. Surv. 1976, 1, 325). Working solutions in aqueous buffer (10 mM NaH2PO4/Na2HPO4, 1 mM Na2EDTA, pH 7.00+0.01) containing CT-DNA (100 μm in phosphate) and the PND (pyrrolo naphtha diazepine) (20 μm) have been prepared by addition of concentrated PND (pyrrolo naphtha diazepine) solutions in DMSO to obtain a fixed [PND]/[DNA] molar ratio of 1:5. The DNA-PND (pyrrolo naphtha diazepine) solutions have been incubated at 37° C. for 0 and 18 h prior to analysis. Samples have been monitored at 260 nm using a Beckman DU-800 spectrophotometer fitted with high performance temperature controller, and heated at 1° C. min in the 40-110° C. range. DNA helix→coil transition temperatures (Tm) have been obtained from the maxima in the d(A260)/dT derivative plots. Drug-induced alterations in DNA melting behavior are given by: ΔTm=Tm(DNA+PND)−Tm(DNA alone), where the Tm value for the PND-free CT-DNA is 69.1±0.01.
The DNA binding activity for these novel substituted piperazine linked pyrrolo naphtho diazepine hybrids has been examined by thermal denaturation studies using calf thymus (CT) DNA. […] The data for some of the compounds are included in Table 1 for comparison.

[2] = test system: L-6 skeletal cancer cell line; assay: In vitro anticancer activity, MTT assay; assay type: cell-based; settings: result in words
Method: (§1) In vitro biological activity studies were carried out at the pharmacology division, IICT, Hyderabad. The compounds were evaluated for in vitro anticancer activity against eight tumour cell lines derived from […] cancer types (breast, lung, liver, skeletal, kidney, prostrate, small intestine) as shown in Table 2. For each compound, dose response curves for each cell line were measured at a minimum of five concentrations at 10 fold dilutions. A protocol of 48 h continuous drug exposure was used and a MTT assay was used to estimate cell viability or growth. The concentration causing 50% inhibition (IC50) compared with the control was calculated. Some of the compounds have been evaluated for their in vitro cytotoxicity in eight cell lines from seven human cancer types. The results are expressed as IC50 determined relative to that of untreated control cells (Table-2).

[3] = test system: L-6; assay: In vitro anticancer activity, MTT assay; assay type: cell-based; settings: skeletal cancer cell line; MTT, 48 h continuous drug exposure
Method: as §1

[4] = test system: A549 lung cancer cell line; assay: In vitro anticancer activity, MTT assay; assay type: cell-based, human; settings: for in-vitro cytotoxicity in lung cancer cell line (A549): result in words
Method: as §1

[5] = test system: HEPG2 liver cancer cell line; assay: In vitro anticancer activity, MTT assay; assay type: cell-based, human; settings: for in-vitro cytotoxicity in liver cancer cell line (HEPG2): result in words
Method: as §1

[6] = test system: PC-3 prostrate cancer cell line; assay: In vitro anticancer activity, MTT assay; assay type: cell-based, human; settings: for IC50: prostrate cancer cell line, MTT, 48 h continuous drug exposure; for in-vitro cytotoxicity in prostrate cancer cell line (PC-3): result in words
Method: as §1

[7] = test system: NCIH460 large cell lung cancer cell line; assay: In vitro anticancer activity, MTT assay; assay type: cell-based, human; settings: for IC50: large cell lung cancer cell line, MTT, 48 h continuous drug exposure; for in-vitro cytotoxicity in large cell lung cancer cell line (NCIH460): result in words
Method: as §1

[8] = test system: MCF7 breast cancer cell line; assay: In vitro anticancer activity, MTT assay; assay type: cell-based, human; settings: for IC50: breast cancer cell line, MTT, 48 h continuous drug exposure; for in-vitro cytotoxicity in breast cancer cell line (MCF-7): result in words
Method: as §1

[9] = test system: IEC-6 small intestine cell line; assay: In vitro anticancer activity, MTT assay; assay type: cell-based; settings: for in-vitro cytotoxicity in small intestine cancer cell line (IEC-6): result in words
Method: as §1

[10] = In vitro anticancer activity, MTT assay; assay type: cell-based; settings: kidney cancer cell line; MTT, 48 h continuous drug exposure; read-out: IC50 COS-1
Method: as §1

[11] = test system: COS-1 kidney cancer cell line; assay: In vitro anticancer activity, MTT assay; assay type: cell-based; settings: for in-vitro cytotoxicity in kidney cancer cell line (COS-1): result in words; for IC50: COS-1, range over the listed compounds, exposure period of at least 48 hrs, read-out: IC50 against kidney cancer cell lines
Method: as §1

[12] = lung cancer cell line, MTT, 48 h continuous drug exposure, read-out: IC50 A549
[13] = liver cancer cell line, MTT, 48 h continuous drug exposure, read-out: IC50 HEPG2
[14] = small intestine cell line, MTT, 48 h continuous drug exposure, read-out: IC50 IEC-6
[15] = IEC-6, range over the listed compounds, exposure period of at least 48 hrs, read-out: IC50 against small intestine cancer cell lines
[16] = IEC-6, small intestine cell line, MTT, 48 h continuous drug exposure, read-out: IC50 IEC-6
[17] = Homo sapiens, A549, lung cancer cell line, MTT, 48 h continuous drug exposure, read-out: IC50 A549
[18] = Homo sapiens, A549, range over the listed compounds, exposure period of at least 48 hrs, read-out: IC50 against lung cancer cell lines
[19] = Homo sapiens, HepG2, liver cancer cell line, MTT, 48 h continuous drug exposure, read-out: IC50 HEPG2
[20] = Homo sapiens, HepG2, range over the listed compounds, exposure period of at least 48 hrs, read-out: IC50 against liver cancer cell lines

## COc1cc2cc3c(cc2cc1OCCN1CCN(C(C)=O)CC1)N=C[C@@H]1CCCN1C3=O [5a, 8-Methoxy-9-[2-(4-acetylpiperazino)ethoxy]-(13aS)-1,2,3,13a-tetrahydro-5H-pyrrolo[2,1-c][1,4]naphthodiazepin-5-one]
[1]
  ΔTm after incubation at 37° C. for 0 hr: 5.5 °C
  ΔTm after incubation at 37° C. for 18 hrs: 7.1 °C
[2]
  in-vitro cytotoxicity in skeletal cancer cell line (L-6): exhibiting in-vitro cytotoxicity
[3]
  IC50: 2.66 µM
[4]; [12]
  IC50: 0.66 µM
[4]
  in-vitro cytotoxicity in lung cancer cell line (A549): exhibiting in-vitro cytotoxicity
[5]; [13]
  IC50: 7.32 µM
[5]
  in-vitro cytotoxicity in liver cancer cell line (HEPG2): exhibiting in-vitro cytotoxicity
[6]
  IC50: 13.5 µM
  in-vitro cytotoxicity in prostrate cancer cell line (PC-3): exhibiting in-vitro cytotoxicity
[7]
  IC50: 1.68 µM
  in-vitro cytotoxicity in large cell lung cancer cell line (NCIH460): exhibiting in-vitro cytotoxicity
[8]
  IC50: 2.88 µM
  in-vitro cytotoxicity in breast cancer cell line (MCF-7): exhibiting in-vitro cytotoxicity

## COc1cc2cc3c(cc2cc1OCCN1CCN(c2ccccc2)CC1)N=C[C@@H]1CCCN1C3=O [8a, 8-Methoxy-9-[2-(4-phenylpiperazino)ethoxy]-(13aS)-1,2,3,13a-tetrahydro-5H-pyrrolo[2,1-c][1,4]naphthodiazepin-5-one]
[1]
  ΔTm after incubation at 37° C. for 0 hr: 5.1 °C
  ΔTm after incubation at 37° C. for 18 hrs: 6.9 °C
[2]
  in-vitro cytotoxicity in skeletal cancer cell line (L-6): exhibiting in-vitro cytotoxicity
[9]
  in-vitro cytotoxicity in small intestine cancer cell line (IEC-6): exhibiting in-vitro cytotoxicity
[9]; [14]
  IC50: 0.14 µM
[10]
  IC50: 6.39 µM
[11]
  in-vitro cytotoxicity in kidney cancer cell line (COS-1): exhibiting in-vitro cytotoxicity
[3]
  IC50: 1.01 µM
[4]; [12]
  IC50: 7.42 µM
[4]
  in-vitro cytotoxicity in lung cancer cell line (A549): exhibiting in-vitro cytotoxicity
[5]; [13]
  IC50: 0.47 µM
[5]
  in-vitro cytotoxicity in liver cancer cell line (HEPG2): exhibiting in-vitro cytotoxicity
[6]
  IC50: 1.6 µM
  in-vitro cytotoxicity in prostrate cancer cell line (PC-3): exhibiting in-vitro cytotoxicity
[7]
  IC50: 0.43 µM
  in-vitro cytotoxicity in large cell lung cancer cell line (NCIH460): exhibiting in-vitro cytotoxicity
[8]
  IC50: 1.5 µM
  in-vitro cytotoxicity in breast cancer cell line (MCF-7): exhibiting in-vitro cytotoxicity

## COc1cc2cc3c(cc2cc1OCCN1CCN(Cc2ccc4c(c2)OCO4)CC1)N=C[C@@H]1CCCN1C3=O [7a, 8-Methoxy-9-(2-[4-(1,3-benzodioxol-5-ylmethyl)piperazino]ethoxyl)(13aS)-1,2,3,13a-tetrahydro-5H-pyrrolo[2,1-c][1,4]naphthodiazepin-5-one]
[1]
  ΔTm after incubation at 37° C. for 0 hr: 4.9 °C
  ΔTm after incubation at 37° C. for 18 hrs: 6.5 °C
[2]
  in-vitro cytotoxicity in skeletal cancer cell line (L-6): exhibiting in-vitro cytotoxicity
[9]
  in-vitro cytotoxicity in small intestine cancer cell line (IEC-6): exhibiting in-vitro cytotoxicity
[9]; [14]
  IC50: 0.05 µM
[10]
  IC50: 2.58 µM
[11]
  in-vitro cytotoxicity in kidney cancer cell line (COS-1): exhibiting in-vitro cytotoxicity
[3]
  IC50: 0.77 µM
[4]; [12]
  IC50: 2.21 µM
[4]
  in-vitro cytotoxicity in lung cancer cell line (A549): exhibiting in-vitro cytotoxicity
[5]; [13]
  IC50: 0.11 µM
[5]
  in-vitro cytotoxicity in liver cancer cell line (HEPG2): exhibiting in-vitro cytotoxicity
[6]
  IC50: 0.64 µM
  in-vitro cytotoxicity in prostrate cancer cell line (PC-3): exhibiting in-vitro cytotoxicity
[7]
  IC50: 0.08 µM
  in-vitro cytotoxicity in large cell lung cancer cell line (NCIH460): exhibiting in-vitro cytotoxicity
[8]
  IC50: 0.2 µM
  in-vitro cytotoxicity in breast cancer cell line (MCF-7): exhibiting in-vitro cytotoxicity

## COc1cc2c(cc1O)N=CC1CCCN1C2=O (stereo not shown) [DC-81, reference compound]
[1]
  ΔTm after incubation at 37° C. for 0 hr: 0.3 °C
  ΔTm after incubation at 37° C. for 18 hrs: 0.7 °C
[9]; [14]
  IC50: 15.4 µM
[10]
  IC50: 32.9 µM
[3]
  IC50: 27.6 µM
[4]; [12]
  IC50: 17.5 µM
[5]; [13]
  IC50: 5.27 µM
[6]
  IC50: 14.2 µM
[7]
  IC50: 8.93 µM
[8]
  IC50: 12.6 µM

## COc1cc2cc3c(cc2cc1OCCN1CCN(c2ccc(F)cc2)CC1)C(=O)N1CCC[C@H]1C=N3 [20a, 9-Methoxy-8-(2-[4-(4-fluorophenyl)piperazino]ethoxy)-(13aS)-1,2,3,13a-tetrahydro-5H-pyrrolo[2,1-c][1,4]naphthodiazepin-5-one]
[1]
  ΔTm after incubation at 37° C. for 0 hr: 5.9 °C
  ΔTm after incubation at 37° C. for 18 hrs: 7.0 °C
[2]
  in-vitro cytotoxicity in skeletal cancer cell line (L-6): exhibiting in-vitro cytotoxicity
[9]; [15]
  IC50: 0.01 to 5.84 µM
[9]; [16]
  IC50: 5.84 µM
[9]
  in-vitro cytotoxicity in small intestine cancer cell line (IEC-6): exhibiting in-vitro cytotoxicity
[11]
  IC50: 0.8 to 4.32 µM
[3]
  IC50: 6.36 µM
[4]; [17]
  IC50: 10.6 µM
[4]; [18]
  IC50: 0.02 to 11.9 µM
[4]
  in-vitro cytotoxicity in lung cancer cell line (A549): exhibiting in-vitro cytotoxicity
[5]; [19]
  IC50: 4.03 µM
[5]; [20]
  IC50: 0.02 to 7.32 µM
[5]
  in-vitro cytotoxicity in liver cancer cell line (HEPG2): exhibiting in-vitro cytotoxicity
[6]; Homo sapiens
  IC50: 4.37 µM
[6]
  in-vitro cytotoxicity in prostrate cancer cell line (PC-3): exhibiting in-vitro cytotoxicity
[7]; Homo sapiens, NCI-H460
  IC50: 0.99 µM
[7]
  in-vitro cytotoxicity in large cell lung cancer cell line (NCIH460): exhibiting in-vitro cytotoxicity
[8]; Homo sapiens, MCF7
  IC50: 3.99 µM
[8]
  in-vitro cytotoxicity in breast cancer cell line (MCF-7): exhibiting in-vitro cytotoxicity

## COc1cc2cc3c(cc2cc1OCCN1CCN(c2ncccn2)CC1)C(=O)N1CCC[C@H]1C=N3 [24a, 9-Methoxy-8-(2-[4-(2-pyrimidinyl)piperazino]ethoxy)-(13aS)-1,2,3,13a-tetrahydro-5H-pyrrolo[2,1-c][1,4]naphthodiazepin-5-one]
[1]
  ΔTm after incubation at 37° C. for 0 hr: 4.9 °C
  ΔTm after incubation at 37° C. for 18 hrs: 6.5 °C
[2]
  in-vitro cytotoxicity in skeletal cancer cell line (L-6): exhibiting in-vitro cytotoxicity
[9]; [15]
  IC50: 0.01 to 5.84 µM
[9]; [16]
  IC50: 0.2 µM
[9]
  in-vitro cytotoxicity in small intestine cancer cell line (IEC-6): exhibiting in-vitro cytotoxicity
[11]
  IC50: 0.8 to 4.32 µM
[3]
  IC50: 2.21 µM
[4]; [17]
  IC50: 11.9 µM
[4]; [18]
  IC50: 0.02 to 11.9 µM
[4]
  in-vitro cytotoxicity in lung cancer cell line (A549): exhibiting in-vitro cytotoxicity
[5]; [19]
  IC50: 1.04 µM
[5]; [20]
  IC50: 0.02 to 7.32 µM
[5]
  in-vitro cytotoxicity in liver cancer cell line (HEPG2): exhibiting in-vitro cytotoxicity
[6]; Homo sapiens
  IC50: 0.01 µM
[6]
  in-vitro cytotoxicity in prostrate cancer cell line (PC-3): exhibiting in-vitro cytotoxicity
[7]; Homo sapiens, NCI-H460
  IC50: 0.002 µM
[7]
  in-vitro cytotoxicity in large cell lung cancer cell line (NCIH460): exhibiting in-vitro cytotoxicity
[8]; Homo sapiens, MCF7
  IC50: 1.97 µM
[8]
  in-vitro cytotoxicity in breast cancer cell line (MCF-7): exhibiting in-vitro cytotoxicity
